Experimental data reported in BindingDB's records for doi:10.7270/Q2PZ577D (The Scripps Research Institute Molecular Screening Center, 2008).

Molecular target: T1, Signal transducer and activator of transcription 3 [702-738,740-752] (Homo sapiens, UniProt P40763)
T1 construct: 702-738,740-752
Assay: dose response, counter-screen for STAT1 inhibitor project (AID 1409)

T1 sequence (P40763 as listed by the source): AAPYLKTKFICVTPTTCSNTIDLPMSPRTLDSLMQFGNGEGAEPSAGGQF

`CCN1C(=O)C(=CNNC(=O)c2ccncc2)C(=O)N(CC)C1=S` [SMR000218837] was tested, and the IC50 was greater than 55.7 µM.
